Results published in ChEMBL document CHEMBL2429856, “Benzazepinones and benzoxazepinones as antagonists of inhibitor of apoptosis proteins (IAPs) selective for the second baculovirus IAP repeat (BIR2) domain” (J Med Chem, 2013).
pIC50: −log10 of the molar value.

Tests used:
[1] = biological target: T1, E3 ubiquitin-protein ligase XIAP (Homo sapiens, UniProt P98170)
[2] = biological target: T1, E3 ubiquitin-protein ligase XIAP; remark: listed apart in the source
Cytochrome P450 3A4 [3] = biological target: T2, Cytochrome P450 3A4 (Homo sapiens, UniProt P08684); assay: Inhibition of CYP3A4 (unknown origin); type: ADME
T2 sequence (P08684 whole entry, the tested form may be a part): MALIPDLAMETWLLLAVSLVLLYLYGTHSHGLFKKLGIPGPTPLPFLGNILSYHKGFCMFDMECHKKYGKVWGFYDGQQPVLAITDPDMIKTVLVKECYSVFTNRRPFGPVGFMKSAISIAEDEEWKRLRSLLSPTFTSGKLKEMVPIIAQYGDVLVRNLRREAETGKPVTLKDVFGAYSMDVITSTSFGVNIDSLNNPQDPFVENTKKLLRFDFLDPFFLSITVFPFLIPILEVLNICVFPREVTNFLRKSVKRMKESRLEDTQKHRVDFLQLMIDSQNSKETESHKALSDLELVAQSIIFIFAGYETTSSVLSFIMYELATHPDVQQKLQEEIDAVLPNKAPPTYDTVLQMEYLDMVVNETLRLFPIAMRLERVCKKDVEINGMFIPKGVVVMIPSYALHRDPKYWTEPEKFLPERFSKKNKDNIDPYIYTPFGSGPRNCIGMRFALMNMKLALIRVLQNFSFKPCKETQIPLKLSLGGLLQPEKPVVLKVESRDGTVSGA

[4] = biological target: T3, Baculoviral IAP repeat-containing protein 2 (Homo sapiens, UniProt Q13490); assay: Inhibition of His-thrombin-TEV-tagged cIAP1 BIR3 domain (260 to 352) (unknown origin) after 1 hr by TR-FRET assay
T3 sequence (Q13490 whole entry, the tested form may be a part): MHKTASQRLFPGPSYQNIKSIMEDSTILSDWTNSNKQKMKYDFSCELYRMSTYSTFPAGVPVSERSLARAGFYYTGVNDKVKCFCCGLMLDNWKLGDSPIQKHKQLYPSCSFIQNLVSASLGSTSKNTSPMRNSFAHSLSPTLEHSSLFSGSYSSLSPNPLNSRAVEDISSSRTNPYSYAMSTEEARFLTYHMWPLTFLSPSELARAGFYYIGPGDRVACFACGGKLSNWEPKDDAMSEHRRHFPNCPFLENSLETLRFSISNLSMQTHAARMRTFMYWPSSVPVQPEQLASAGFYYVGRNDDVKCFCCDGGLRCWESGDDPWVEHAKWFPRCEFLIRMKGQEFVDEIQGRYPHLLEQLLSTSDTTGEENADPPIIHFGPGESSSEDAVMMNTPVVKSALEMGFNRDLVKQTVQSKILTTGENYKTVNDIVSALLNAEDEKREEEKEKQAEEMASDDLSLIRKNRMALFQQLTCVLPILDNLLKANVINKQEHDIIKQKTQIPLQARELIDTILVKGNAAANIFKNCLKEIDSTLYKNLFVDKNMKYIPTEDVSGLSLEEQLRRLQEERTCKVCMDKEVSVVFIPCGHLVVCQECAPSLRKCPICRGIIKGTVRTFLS

[5] = Half life in mouse at 10 mg/kg, po; type: ADME, organism-based; design: dose 10 mg/kg, route oral; details: in vivo
[6] = Half life in mouse at 1 mg/kg, iv; type: ADME, organism-based; design: dose 1 mg/kg, route intravenous; details: in vivo
[7] = Volume of distribution at steady state in mouse at 1 mg/kg, iv; type: ADME, organism-based; design: dose 1 mg/kg, route intravenous; details: in vivo, read-out: Vdss
[8] = Clearance in mouse at 1 mg/kg, iv; type: ADME, organism-based; design: dose 1 mg/kg, route intravenous; details: in vivo
[9] = AUC in mouse at 10 mg/kg, po; type: ADME, organism-based; design: dose 10 mg/kg, route oral; details: plasma
Cytochrome P450 3A4 [10] = biological target: T2, Cytochrome P450 3A4; assay: Induction of CYP3A4 (unknown origin); type: ADME
[11] = Oral bioavailability in mouse at 10 mg/kg; type: ADME, organism-based; details: in vivo
[12] = AUC in mouse at 1 mg/kg, iv; type: ADME, organism-based; design: dose 1 mg/kg, route intravenous; details: plasma
[13] = biological target: T3, Baculoviral IAP repeat-containing protein 2; assay: Inhibition of His-thrombin-TEV-tagged cIAP1 BIR2 domain (174 to 256) (unknown origin) after 1 hr by TR-FRET assay
[14] = Cmax in mouse at 10 mg/kg, po; type: ADME, organism-based; design: dose 10 mg/kg, route oral; details: in vivo
[15] = Cmax in mouse at 1 mg/kg, iv; type: ADME, organism-based; design: dose 1 mg/kg, route intravenous; details: in vivo
Cytochrome P450 3A4 [16] = biological target: T2, Cytochrome P450 3A4; assay: Time dependent inhibition of CYP3A4 (unknown origin); type: ADME
[17] = Metabolic stability in rat blood assessed as compound remaining at 1 uM after 4 hrs by LC-MS/MS analysis; type: ADME, tissue-based; details: read-out: Stability
[18] = Clearance in rat at 2 mg/kg, iv; type: ADME, organism-based; design: dose 2 mg/kg, route intravenous; details: in vivo
[19] = In vivo metabolic stability in rat urine assessed as hydrolysis of the alanine amide at 4 mg/kg, iv; type: ADME, organism-based; design: dose 4 mg/kg, route intravenous
Plasma = assay: In vivo metabolic stability in rat plasma assessed as hydrolysis of the alanine amide at 4 mg/kg, iv; type: ADME, organism-based; design: dose 4 mg/kg, route intravenous
Hepatocyte [20] = assay: Drug metabolism in rat hepatocytes assessed as demethylation of N-methyl-L-alanine; type: ADME, cell-based
Hepatocyte [21] = assay: Drug metabolism in human hepatocytes assessed as demethylation of methoxy group of naphthalene; type: ADME, cell-based
Hepatocyte [22] = assay: Drug metabolism in human hepatocytes assessed as demethylation of N-methyl-L-alanine; type: ADME, cell-based
Hepatocyte [23] = assay: Drug metabolism in rat hepatocytes assessed as demethylation of methoxy group of naphthalene; type: ADME, cell-based

T1 sequence (P98170 whole entry): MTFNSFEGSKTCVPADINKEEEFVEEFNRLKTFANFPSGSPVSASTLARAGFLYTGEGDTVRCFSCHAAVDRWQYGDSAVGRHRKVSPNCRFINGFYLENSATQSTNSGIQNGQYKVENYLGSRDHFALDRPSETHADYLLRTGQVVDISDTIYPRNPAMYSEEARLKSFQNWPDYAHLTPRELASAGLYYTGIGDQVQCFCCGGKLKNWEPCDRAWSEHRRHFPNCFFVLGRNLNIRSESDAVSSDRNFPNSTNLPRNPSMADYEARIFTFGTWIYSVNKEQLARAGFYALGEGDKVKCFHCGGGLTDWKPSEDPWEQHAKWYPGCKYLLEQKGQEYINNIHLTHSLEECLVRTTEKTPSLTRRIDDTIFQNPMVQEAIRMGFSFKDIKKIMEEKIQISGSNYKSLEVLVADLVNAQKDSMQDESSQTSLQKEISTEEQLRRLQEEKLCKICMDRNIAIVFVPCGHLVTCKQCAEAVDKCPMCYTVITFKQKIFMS

CN[C@@H](C)C(=O)N[C@H]1CCc2ccccc2N(Cc2cccc3ccccc23)C1=O gave a pIC50 [1] of under 4.27.

Compound CN[C@@H](C)C(=O)N[C@H]1CCc2ccccc2N(Cc2ccc3ccccc3c2)C1=O has a pIC50 [1] of under 4.27.

C[C@H](N)C(=O)N[C@@H]1C(=O)N(C)CCc2ccccc21 gave a pIC50 [1] of under 4.27 and a pIC50 [2] of 4.84.

With CN[C@@H](C)C(=O)N[C@@H]1C(=O)N(Cc2c(C#N)n(-c3ccccc3C#N)c3ccccc23)c2ccccc2OC12CCOCC2.Cl the “inhibition (INH)” value (Cytochrome P450 3A4 [3]) was “Active”, the pIC50 [4] was under 4.26 and the half-life [5] was 5 h. It also gave a half-life [6] of 6.9 h, a Vd [7] of 8.6 L/kg and a clearance [8] of 33 mL/min/kg. The AUC [9] was 2860 ng·h/mL, the Activity (Cytochrome P450 3A4 [10]) was “Active” and the bioavailability [11] was 53%. For the same compound, the AUC [12] was 543 ng·h/mL, the pIC50 [13] was 6.57 and the Cmax [14] was 647 ng/mL. The Cmax [15] was 495 ng/mL and the “inhibition (INH)” value (Cytochrome P450 3A4 [16]) was “Active”.

For CCN[C@@H](C)C(=O)N[C@H]1CCc2ccccc2N(Cc2c(OC)ccc3cc(Br)ccc23)C1=O, the pIC50 [1] was under 4.27.

Compound CN[C@@H](C)C(=O)N[C@H]1CCc2ccccc2N(Cc2c(C)ccc3ccccc23)C1=O has a pIC50 [1] of under 4.27.

CN[C@@H](C)C(=O)N[C@H]1CCc2ccccc2N(CCc2ccccc2)C1=O gave a pIC50 [1] of under 4.27.

Work on CN[C@@H](C)C(=O)N[C@@H]1C(=O)N(Cc2nn(-c3ccccc3C#N)c3ccccc23)c2ccccc2OC12CCOCC2 yielded a pIC50 [1] of under 4.26.

With CN[C@@H](C)C(=O)N[C@H]1COc2ccccc2N(Cc2c(OC)ccc3cc(Br)ccc23)C1=O the remaining at 4 h, 1 µM [17] was 7%.

With CN[C@@H](C)C(=O)N[C@H]1CCc2ccccc2N(Cc2ccccc2)C1=O the pIC50 [1] was under 4.27.

Compound CN[C@@H](C)C(=O)N[C@H]1CCc2ccccc2N(Cc2ccc(C)c3ccccc23)C1=O has a pIC50 [1] of under 4.27.

In the case of COc1ccc2cc(Br)ccc2c1CN1C(=O)[C@@H](NC(=O)[C@@H](N)[C@H](C)O)CCc2ccccc21, the pIC50 [1] was under 4.27.

Compound CN[C@H](C)C(=O)N[C@H]1CCc2ccccc2N(Cc2c(OC)ccc3cc(Br)ccc23)C1=O has a pIC50 [1] of under 4.27.

With CN[C@@H](C)C(=O)N[C@H]1CCc2ccccc2N(Cc2c(OC)ccc3cc(Br)ccc23)C1=O.Cl the clearance [18] was 116 mL/min/kg, the pIC50 [1] was under 4.27 and the Stability [19] was “Unstable”. For the same compound, the Stability (Plasma) was “Unstable” and the remaining at 4 h, 1 µM [17] was 40%.

For CN[C@@H](C)C(=O)N[C@H]1CCc2ccccc2N(Cc2c(OC)ccc3ccccc23)C1=O, the pIC50 [1] was under 4.27.

In the case of CN[C@@H](C)C(=O)N[C@@H]1C(=O)N(Cc2c(OC)ccc3cc(Br)ccc23)c2ccccc2OC12CCOCC2.Cl, the Drug metabolism (Hepatocyte [20]) was “Active”, the Drug metabolism (Hepatocyte [21]) was “Active” and the Drug metabolism (Hepatocyte [22]) was “Active”. For the same compound, the Drug metabolism (Hepatocyte [23]) was “Active” and the remaining at 4 h, 1 µM [17] was 88%.
